Source: patent US20250176599A1, “FLAVOR COMPOSITION AND FOOD AND BEVERAGE” (TAKASAGO INTERNATIONAL CORPORATION, priority 2021, published 2025)

Columns and labels:
[1] = Sensory evaluation of aqueous solution I containing (E)-2-nonenal 1 ppb: off-flavor intensity and masking component intensity; conditions: average panel score
Protocol: (§1) In ion-exchanged water, each degradation component was added to achieve the concentrations listed in Table 1, and aqueous solutions I to VI containing these degradation components were prepared.
(§2) For the aforementioned aqueous solutions containing degradation components, nootkatone was added at the concentrations listed in Table 2 to confirm the intensity of the off-flavor (masking effect) in each sample and the intensity of the masking component itself (the impact on the flavor of the food and/or beverage itself).
(§3) The test was conducted as follows. Eight experienced panelists were selected to conduct a sensory evaluation. The intensity of the off-flavor of the aqueous solution containing the degradation components derived from unsaturated fatty acids, without added masking components, was set as “Evaluation: 4.” The ion-exchanged water free of any degradation components was set as “Evaluation: 0.” The intensity of the off-flavor (masking effect) of each sample was then relatively evaluated according to the following evaluation criteria.
(§4) • Off-flavor is strongly sensed: 4 points • Off-flavor is sensed: 3 points • Off-flavor is slightly sensed: 2 points • Off-flavor is barely sensed: 1 point • Off-flavor is not sensed at all: 0 points
(§5) Also, the intensity of the masking components (impact on the flavor of the food and/or beverage itself) was absolutely evaluated according to the following evaluation criteria.
(§6) • Masking component is strongly sensed: 4 points • Masking component is sensed: 3 points • Masking component is slightly sensed: 2 points • Masking component is barely sensed: 1 point • Masking component is not sensed at all: 0 points

[2] = Sensory evaluation of aqueous solution VI containing 1,5-octadien-3-ol 10 ppb: off-flavor intensity and masking component intensity; conditions: aqueous solution VI, average panel score
Protocol: as §1, §2, §3, §4, §5, §6

[3] = Sensory evaluation of aqueous solution V containing 1-octen-3-ol 10 ppb: off-flavor intensity and masking component intensity; conditions: average panel score
Protocol: as §1, §2, §3, §4, §5, §6

[4] = Overall conclusion of the sensory evaluation across aqueous solutions I to VI
Protocol: as §1, §2, §3, §4, §5, §6

[5] = Sensory evaluation of aqueous solution III containing 1-octen-3-one 1 ppb: off-flavor intensity and masking component intensity; conditions: average panel score
Protocol: as §1, §2, §3, §4, §5, §6

[6] = Sensory evaluation of aqueous solution II containing (E)-2-octenal 10 ppb: off-flavor intensity and masking component intensity; conditions: average panel score
Protocol: as §1, §2, §3, §4, §5, §6

[7] = Sensory evaluation of aqueous solution IV containing 1,5-octadien-3-one 100 ppt: off-flavor intensity and masking component intensity; conditions: aqueous solution IV, average panel score
Protocol: as §1, §2, §3, §4, §5, §6

Structure (SMILES): CC(=O)/C(C)=C/C1C(C)=CCCC1(C)C (centres unmarked) [γ-methyl ionone]
- Masking Component Intensity ([1]; 0.01 ppt added): 0.3
- Off-Flavor Intensity ([1]; 0.01 ppt added): 3.8
- Masking Component Intensity ([1]; 0.1 ppt added): 0.6
- Off-Flavor Intensity ([1]; 0.1 ppt added): 3.4
- Masking Component Intensity ([1]; 1 ppb added): 2.0
- Off-Flavor Intensity ([1]; 1 ppb added): 2.1
- Masking Component Intensity ([1]; 1 ppm added): 4.0
- Off-Flavor Intensity ([1]; 1 ppm added): 0.3
- Masking Component Intensity ([1]; 1 ppt added): 0.8
- Off-Flavor Intensity ([1]; 1 ppt added): 3.1
- Masking Component Intensity ([1]; 10 ppb added): 2.5
- Off-Flavor Intensity ([1]; 10 ppb added): 1.6
- Masking Component Intensity ([1]; 10 ppt added): 1.1
- Off-Flavor Intensity ([1]; 10 ppt added): 2.5
- Masking Component Intensity ([1]; 100 ppb added): 3.5
- Off-Flavor Intensity ([1]; 100 ppb added): 1.0
- Masking Component Intensity ([1]; 100 ppt added): 1.5
- Off-Flavor Intensity ([1]; 100 ppt added): 2.4
- Masking Component Intensity ([2]; 0.01 ppt added): 0.4
- Off-Flavor Intensity ([2]; 0.01 ppt added): 3.1
- Masking Component Intensity ([2]; 0.1 ppt added): 0.9
- Off-Flavor Intensity ([2]; 0.1 ppt added): 3.1
- Masking Component Intensity ([2]; 1 ppb added): 1.9
- Off-Flavor Intensity ([2]; 1 ppb added): 1.9
- Masking Component Intensity ([2]; 1 ppm added): 4.0
- Off-Flavor Intensity ([2]; 1 ppm added): 0.5
- Masking Component Intensity ([2]; 1 ppt added): 1.0
- Off-Flavor Intensity ([2]; 1 ppt added): 2.8
- Masking Component Intensity ([2]; 10 ppb added): 2.8
- Off-Flavor Intensity ([2]; 10 ppb added): 1.3
- Masking Component Intensity ([2]; 10 ppt added): 1.3
- Off-Flavor Intensity ([2]; 10 ppt added): 2.4
- Masking Component Intensity ([2]; 100 ppb added): 3.4
- Off-Flavor Intensity ([2]; 100 ppb added): 0.9
- Masking Component Intensity ([2]; 100 ppt added): 1.6
- Off-Flavor Intensity ([2]; 100 ppt added): 2.1
- Masking Component Intensity ([3]; 0.01 ppt added): 0.0
- Off-Flavor Intensity ([3]; 0.01 ppt added): 3.5
- Masking Component Intensity ([3]; 0.1 ppt added): 0.4
- Off-Flavor Intensity ([3]; 0.1 ppt added): 3.3
- Masking Component Intensity ([3]; 1 ppb added): 2.3
- Off-Flavor Intensity ([3]; 1 ppb added): 1.9
- Masking Component Intensity ([3]; 1 ppm added): 4.0
- Off-Flavor Intensity ([3]; 1 ppm added): 0.1
- Masking Component Intensity ([3]; 1 ppt added): 0.4
- Off-Flavor Intensity ([3]; 1 ppt added): 3.3
- Masking Component Intensity ([3]; 10 ppb added): 2.9
- Off-Flavor Intensity ([3]; 10 ppb added): 1.5
- Masking Component Intensity ([3]; 10 ppt added): 1.0
- Off-Flavor Intensity ([3]; 10 ppt added): 2.6
- Masking Component Intensity ([3]; 100 ppb added): 3.8
- Off-Flavor Intensity ([3]; 100 ppb added): 0.8
- Masking Component Intensity ([3]; 100 ppt added): 1.4
- Off-Flavor Intensity ([3]; 100 ppt added): 2.1
- concentration that masks the off-flavor and does not affect the flavor of the food and/or beverage itself, lower limit [4]: ≥ 1 ppt
- concentration that masks the off-flavor and does not affect the flavor of the food and/or beverage itself, upper limit [4]: ≤ 10 ppb
- Masking Component Intensity ([5]; 0.01 ppt added): 0.3
- Off-Flavor Intensity ([5]; 0.01 ppt added): 3.4
- Masking Component Intensity ([5]; 0.1 ppt added): 0.3
- Off-Flavor Intensity ([5]; 0.1 ppt added): 3.3
- Masking Component Intensity ([5]; 1 ppb added): 1.6
- Off-Flavor Intensity ([5]; 1 ppb added): 2.0
- Masking Component Intensity ([5]; 1 ppm added): 4.0
- Off-Flavor Intensity ([5]; 1 ppm added): 0.3
- Masking Component Intensity ([5]; 1 ppt added): 0.4
- Off-Flavor Intensity ([5]; 1 ppt added): 3.1
- Masking Component Intensity ([5]; 10 ppb added): 2.5
- Off-Flavor Intensity ([5]; 10 ppb added): 1.5
- Masking Component Intensity ([5]; 10 ppt added): 0.6
- Off-Flavor Intensity ([5]; 10 ppt added): 2.8
- Masking Component Intensity ([5]; 100 ppb added): 3.5
- Off-Flavor Intensity ([5]; 100 ppb added): 1.1
- Masking Component Intensity ([5]; 100 ppt added): 0.9
- Off-Flavor Intensity ([5]; 100 ppt added): 2.4
- Masking Component Intensity ([6]; 0.01 ppt added): 0.4
- Off-Flavor Intensity ([6]; 0.01 ppt added): 3.3
- Masking Component Intensity ([6]; 0.1 ppt added): 0.5
- Off-Flavor Intensity ([6]; 0.1 ppt added): 3.1
- Masking Component Intensity ([6]; 1 ppb added): 2.1
- Off-Flavor Intensity ([6]; 1 ppb added): 1.5
- Masking Component Intensity ([6]; 1 ppm added): 4.0
- Off-Flavor Intensity ([6]; 1 ppm added): 0.3
- Masking Component Intensity ([6]; 1 ppt added): 0.8
- Off-Flavor Intensity ([6]; 1 ppt added): 2.8
- Masking Component Intensity ([6]; 10 ppb added): 2.8
- Off-Flavor Intensity ([6]; 10 ppb added): 1.1
- Masking Component Intensity ([6]; 10 ppt added): 1.3
- Off-Flavor Intensity ([6]; 10 ppt added): 2.5
- Masking Component Intensity ([6]; 100 ppb added): 3.8
- Off-Flavor Intensity ([6]; 100 ppb added): 0.6
- Masking Component Intensity ([6]; 100 ppt added): 1.5
- Off-Flavor Intensity ([6]; 100 ppt added): 2.0
- Masking Component Intensity ([7]; 0.01 ppt added): 0.0
- Off-Flavor Intensity ([7]; 0.01 ppt added): 3.8
- Masking Component Intensity ([7]; 0.1 ppt added): 0.0
- Off-Flavor Intensity ([7]; 0.1 ppt added): 3.5
- Masking Component Intensity ([7]; 1 ppb added): 1.5
- Off-Flavor Intensity ([7]; 1 ppb added): 2.1
- Masking Component Intensity ([7]; 1 ppm added): 4.0
- Off-Flavor Intensity ([7]; 1 ppm added): 0.6
- Masking Component Intensity ([7]; 1 ppt added): 0.3
- Off-Flavor Intensity ([7]; 1 ppt added): 3.4
- Masking Component Intensity ([7]; 10 ppb added): 2.3
- Off-Flavor Intensity ([7]; 10 ppb added): 1.6
- Masking Component Intensity ([7]; 10 ppt added): 0.5
- Off-Flavor Intensity ([7]; 10 ppt added): 3.3
- Masking Component Intensity ([7]; 100 ppb added): 3.4
- Off-Flavor Intensity ([7]; 100 ppb added): 1.0
- Masking Component Intensity ([7]; 100 ppt added): 0.6
- Off-Flavor Intensity ([7]; 100 ppt added): 2.8
